Experimental data from BindingDB's records for doi:10.1021/jm2013826 (2012).

Target: Integrin alpha-IIb/beta-3 (Homo sapiens, UniProt P08514+P05106)
Assay: Inhibition of integrin alpha2bbeta3-mediated platelet aggregation in human TRAP-6-activated whole blood for 6 mins by impedence-based aggregometry

Sequence of Integrin alpha-IIb/beta-3 (P05106 27-788 limits assumed): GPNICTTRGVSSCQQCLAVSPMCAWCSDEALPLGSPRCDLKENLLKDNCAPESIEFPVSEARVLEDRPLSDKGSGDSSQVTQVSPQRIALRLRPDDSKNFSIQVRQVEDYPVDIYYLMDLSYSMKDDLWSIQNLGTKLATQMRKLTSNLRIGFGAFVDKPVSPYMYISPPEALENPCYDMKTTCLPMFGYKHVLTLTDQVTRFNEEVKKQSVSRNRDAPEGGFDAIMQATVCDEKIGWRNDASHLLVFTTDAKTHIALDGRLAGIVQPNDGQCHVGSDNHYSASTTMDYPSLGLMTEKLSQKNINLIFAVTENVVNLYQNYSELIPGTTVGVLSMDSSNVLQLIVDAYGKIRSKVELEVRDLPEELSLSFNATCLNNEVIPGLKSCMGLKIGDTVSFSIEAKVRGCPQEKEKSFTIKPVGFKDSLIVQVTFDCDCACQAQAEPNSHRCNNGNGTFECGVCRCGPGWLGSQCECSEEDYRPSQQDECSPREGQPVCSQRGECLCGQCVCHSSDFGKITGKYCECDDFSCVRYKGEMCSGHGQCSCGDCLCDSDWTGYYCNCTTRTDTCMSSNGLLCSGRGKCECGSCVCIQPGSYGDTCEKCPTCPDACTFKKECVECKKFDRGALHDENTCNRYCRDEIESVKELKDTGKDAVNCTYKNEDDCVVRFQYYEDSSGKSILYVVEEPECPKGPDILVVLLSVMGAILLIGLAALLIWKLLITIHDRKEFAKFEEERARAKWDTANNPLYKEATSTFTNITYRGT
Sequence of Integrin alpha-IIb/beta-3 (P08514 32-887 limits assumed): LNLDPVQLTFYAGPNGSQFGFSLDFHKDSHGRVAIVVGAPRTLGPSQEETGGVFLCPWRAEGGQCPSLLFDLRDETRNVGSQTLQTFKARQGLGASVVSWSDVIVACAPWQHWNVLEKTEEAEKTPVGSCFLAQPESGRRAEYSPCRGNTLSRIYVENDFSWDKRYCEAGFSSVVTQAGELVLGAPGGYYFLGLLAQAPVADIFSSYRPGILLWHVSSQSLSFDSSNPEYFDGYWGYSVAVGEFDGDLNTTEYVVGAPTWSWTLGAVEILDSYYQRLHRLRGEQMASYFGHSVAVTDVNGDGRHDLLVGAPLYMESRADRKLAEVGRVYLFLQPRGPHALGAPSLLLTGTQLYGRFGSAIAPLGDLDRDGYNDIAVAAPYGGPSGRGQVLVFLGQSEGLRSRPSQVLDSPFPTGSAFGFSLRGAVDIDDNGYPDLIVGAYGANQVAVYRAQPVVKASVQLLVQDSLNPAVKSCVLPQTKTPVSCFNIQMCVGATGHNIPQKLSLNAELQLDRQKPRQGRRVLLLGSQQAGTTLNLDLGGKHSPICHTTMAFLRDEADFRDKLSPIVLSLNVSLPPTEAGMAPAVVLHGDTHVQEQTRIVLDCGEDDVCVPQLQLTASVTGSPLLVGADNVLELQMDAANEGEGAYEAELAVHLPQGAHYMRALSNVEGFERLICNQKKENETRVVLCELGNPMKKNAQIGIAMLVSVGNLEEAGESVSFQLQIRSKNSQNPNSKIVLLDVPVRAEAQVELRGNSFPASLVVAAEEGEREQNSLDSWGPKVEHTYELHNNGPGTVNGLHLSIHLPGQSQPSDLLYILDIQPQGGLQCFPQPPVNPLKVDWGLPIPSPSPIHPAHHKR
Sequence of Integrin alpha-IIb/beta-3 (P08514 891-1039 limits assumed): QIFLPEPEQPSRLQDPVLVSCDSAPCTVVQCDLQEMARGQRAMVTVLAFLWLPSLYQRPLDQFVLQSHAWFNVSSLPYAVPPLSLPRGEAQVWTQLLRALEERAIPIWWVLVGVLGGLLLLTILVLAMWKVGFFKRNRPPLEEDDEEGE

EC50 [µM]	Structure (SMILES)
0.0078	O=C(NC[C@H](NS(=O)(=O)c1ccccc1)[PH](=O)O)c1ccc(OCCC2CCNCC2)cc1
0.276	O=C(NC[C@H](NS(=O)(=O)c1ccccc1)P(=O)(O)O)c1ccc(OCCC2CCNCC2)cc1
0.0408	COP(=O)(O)[C@H](CNC(=O)c1ccc(OCCC2CCNCC2)cc1)NS(=O)(=O)c1ccccc1
